According to the supplement of paper PMC10307832:

Key:
Test in all cases: relative viability (nuclei count vs DMSO), 5 days (fraction); higher = more cells survive
[1] = compound: CCn1c(-c2nonc2N)nc2c(C#CC(C)(C)O)ncc(OC[C@H]3CCCNC3)c21 + Cc1cc(Nc2cc(N3CCN(C)CC3)nc(Sc3ccc(NC(=O)C4CC4)cc3)n2)n[nH]1 [Tozasertib] (partner 0.1 µM)
Summary of the method: (§1)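 The day after seeding in 1536-well plates, lung cancer cell lines were treated by pin tool with a single drug, or with a fixed anchor-drug dose together with five library-drug doses (not always all listed) in √10 steps. After 5 days, a combined fix-and-stain solution (final 0.05% Triton X-100, 1% formaldehyde, 1 ug/ml Hoechst) was added. Nuclei counted on 4× images gave relative viability as treated counts over vehicle counts, reported as the median of duplicate plates.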

[2] = compound: CCOC1=CC=CC=C1N=NC2=C(NN(C2=O)C3=NC(=CS3)C4=CC=CC=C4)C [BAM7] + CC1(C)CCC(c2ccc(Cl)cc2)=C(CN2CCN(c3ccc(C(=O)NS(=O)(=O)c4ccc(N[C@H](CCN5CCOCC5)CSc5ccccc5)c(S(=O)(=O)C(F)(F)F)c4)cc3)CC2)C1 [Navitoclax] (partner 0.5 µM)
Summary of the method: as §1

[3] = compound: CCOC1=CC=CC=C1N=NC2=C(NN(C2=O)C3=NC(=CS3)C4=CC=CC=C4)C [BAM7] + Cc1nc(Nc2ncc(C(=O)Nc3c(C)cccc3Cl)s2)cc(N2CCN(CCO)CC2)n1 [Dasatinib] (partner 0.075 µM)
Summary of the method: as §1

[4] = compound: CCn1c(-c2nonc2N)nc2c(C#CC(C)(C)O)ncc(OC[C@H]3CCCNC3)c21 + Nc1nc2[nH]cc(CCc3ccc(C(=O)N[C@@H](CCC(=O)O)C(=O)O)cc3)c2c(=O)[nH]1 [Pemetrexed] (partner 0.2 µM)
Summary of the method: as §1

Row | Cell Line | relative viability ([1]; first compound 0.01 µM) | relative viability ([1]; first compound 0.03162 µM) | relative viability ([1]; first compound 0.1 µM) | relative viability ([1]; first compound 0.3162 µM) | relative viability ([1]; first compound 1 µM) | relative viability ([2]; first compound 0.5 µM) | relative viability ([2]; first compound 5 µM) | relative viability ([2]; first compound 15.81 µM) | relative viability ([2]; first compound 50 µM) | relative viability ([3]; first compound 0.5 µM) | relative viability ([3]; first compound 5 µM) | relative viability ([3]; first compound 15.81 µM) | relative viability ([3]; first compound 50 µM) | relative viability ([4]; first compound 0.01 µM) | relative viability ([4]; first compound 0.03162 µM) | relative viability ([4]; first compound 0.1 µM) | relative viability ([4]; first compound 0.3162 µM) | relative viability ([4]; first compound 1 µM)
1 | NCI-H1395 | 0.776 | 0.763 | 0.736 | 0.651 | 0.659 | 1.15 | 1.14 | 1.1 | 1.13 | 0.41 | 0.445 | 0.357 | 0.465 | 0.745 | 0.811 | 0.793 | 0.647 | 0.769
2 | NCI-H1437 | 0.38 | 0.461 | 0.422 | 0.39 | 0.432 | 1.18 | 1.07 | 0.964 | 1.03 | 0.561 | 0.574 | 0.445 | 0.833 | 0.338 | 0.324 | 0.318 | 0.353 | 0.283
3 | NCI-H1650 | 0.398 | 0.474 | 0.44 | 0.403 | 0.44 | 1.46 | 1.26 | 1.15 | 1.15 | 0.338 | 0.278 | 0.277 | 0.337 | 0.361 | 0.352 | 0.369 | 0.359 | 0.348
4 | NCI-H1651 | 0.633 | 0.624 | 0.794 | 0.762 | 0.805 | 1.01 | 1.01 | 0.943 | 1.09 | 0.297 | 0.372 | 0.477 | 0.456 | 0.653 | 0.605 | 0.597 | 0.574 | 0.572
5 | NCI-H1666 | 0.625 | 0.691 | 0.644 | 0.578 | 0.567 | 0.938 | 1.11 | 0.912 | 0.858 | 0.847 | 0.832 | 0.755 | 0.876 | 0.865 | 0.857 | 0.782 | 0.885 | 0.907
6 | NCI-H1734 | 0.262 | 0.258 | 0.285 | 0.26 | 0.268 | 0.877 | 0.948 | 0.861 | 0.771 | 0.503 | 0.59 | 0.491 | 0.53 | 0.389 | 0.419 | 0.385 | 0.391 | 0.431
7 | NCI-H1755 | 0.617 | 0.498 | 0.572 | 0.55 | 0.61 | 1.04 | 1.04 | 0.886 | 1.01 | 0.432 | 0.466 | 0.419 | 0.458 | 0.476 | 0.439 | 0.419 | 0.393 | 0.383
8 | NCI-H1793 | 0.361 | 0.421 | 0.487 | 0.343 | 0.35 | 0.401 | 0.565 | 0.437 | 0.411 | 0.375 | 0.424 | 0.431 | 0.388 | 0.864 | 0.917 | – | 0.845 | 0.923
9 | NCI-H1915 | 0.439 | 0.424 | 0.422 | 0.413 | 0.464 | 0.756 | 0.776 | 0.803 | 0.807 | 0.321 | 0.327 | 0.279 | 0.303 | 0.452 | 0.514 | 0.487 | 0.444 | 0.49
